From US4281121A, “1,3,4-Thiadiazole-2-carboxylic acid derivatives, process for making the same and fungicidal and nematocidal compositions containing same” (Schering Aktiengesellschaft, priority 1978, dated 1981)
Like-named read-outs stand apart in the source and are kept apart here.

Columns and labels:
Fusarium nivale = assay: Treatment of rye seeds against Fusarium nivale; assay type: in vivo; details: 100 g/100 kg; about 4 weeks
Method: Treatment of rye seeds against Fusarium nivale
Rye seeds with a natural infestation by Fusarium nivale were seeded in earth filled pots and left for germination at about 6° C. Part of the seeds was treated before seeding with the active agents as appears from the subsequent table and part was untreated. After emergence of the seedlings the plants were illuminated with artificial light for 12 hours each day. After about 4 weeks the degree of infestation was determined in percentages. The fungicidal activity was calculated on the basis of the following formula: [formula]
The active agents were used in the form of 20% concentration compositions.

Pythium ultimum = assay: Threshold concentration test for use of the compounds against Pythium ultimum (infested soil, garden peas); assay type: in vivo; set-up: key to root evaluation (1-4): 4: white roots without fungous necrosis; 3: white roots, minor fungous necrosis; 2: brown roots, already more pronounced fungous necrosis; 1: heavy fungous necrosis, roots rotted; details: for root evaluation (1-4): 3 weeks; for number of sound peas: 20 grains per dish, 3 weeks at 20-24° C.
Outline: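 Garden pea seeds, 20 per dish, went straight into Pythium ultimum-infested soil into which 20% pulverulent formulations had been uniformly blended. Sound plants counted and roots rated 1–4 after three weeks of hothouse growth at 20–24 °C.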

Tilletia caries [1] = assay: Seed treatment in open field tests regarding infestation by Tilletia caries (oats); assay type: in vivo; details: summer oats, about 4 months
Tilletia caries [2] = assay: Treatment of oat seeds infested with Tilletia caries (spore germination); assay type: in vivo
Helminthosporium gram = details: about 5 weeks
Method: Treatment of barley seeds infested with Helminthosporium gram
After emergence, the plants were subjected to illumination for 12 hours per day. After about 5 weeks the infested plants were counted and the total number of plants for each test were also counted. The active agents tested were used as pulverulent compositions.

Fusarium avenaceum [3] = assay: Inhibition of fungus in a nutrient solution: Fusarium avenaceum; assay type: cell-based; details: 6 days at 21-23° C.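 Note: 0 means no fungus growth and higher grades mean more surface covered.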
Method: Inhibition of fungus in a nutrient solution
20 ml of a nutrient solution of grape juice and water (1:1) were filled into a glass vial of a 100 ml capacity and were mixed with the pulverulent active agents which appear from the subsequent table. Thereafter, the solution was inoculated with conidia (spores) of the test fungi.
After an incubation time of 6 days at 21° to 23° C. the fungus development on the surface of the nutrient solution was evaluated. The test fungi used were the following: Penicillium digitatum, Botrytis cinerea, Alternaria solani, Fusarium avenaceum.
The evaluation was carried out at a scale from 0 to 5 as follows: […]

Fusarium avenaceum [4] = assay: Threshold concentration test in case of Fusarium avenaceum (infested soil, garden peas); assay type: in vivo; details: for number of sound peas: 20 grains per dish, 18 days at 20-24° C.; for root evaluation (1-4): 18 days
Outline: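 Soil heavily infested with Fusarium avenaceum was mixed uniformly with a 20% powder formulation of active agent, then sown immediately with 20 garden pea seeds ('Wunder von Kelvedon') per dish. After 18 days in a greenhouse at 20° to 24° C., sound plants were counted and roots scored on a 1–4 scale.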

Botrytis cinerea = assay: Inhibition of fungus in a nutrient solution: Botrytis cinerea; assay type: cell-based; details: 6 days at 21-23° C.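 Note: 0 means no fungus growth and higher grades mean more surface covered.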
Alternaria solani = assay: Inhibition of fungus in a nutrient solution: Alternaria solani; assay type: cell-based; details: 6 days at 21-23° C.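 Note: 0 means no fungus growth and higher grades mean more surface covered.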
Penicillium digitatum = assay: Inhibition of fungus in a nutrient solution: Penicillium digitatum; assay type: cell-based; details: 6 days at 21-23° C.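 Note: 0 means no fungus growth and higher grades mean more surface covered.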
Plasmopara viticola = assay: Prophylactic leaf treatment of grapevines in the hothouse against Plasmopara viticola; assay type: in vivo
Outline: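 Activity derived from average percentage of leaf surface infested per treatment. Plants with 5–8 leaves received preventive spray (20% spray powder formulation), then undersides inoculated with ~20,000 sporangia/ml; held at 22–24 °C with full humidity, reduced to 30–70% for 3–4 days, then saturated one day.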

Septoria nodorum = assay: Treatment of oat seeds against Septoria nodorum; assay type: in vivo; details: 50 g active agent/100 kg seeds; 4 weeks
Method: Effects of the treatment of oat seeds against Septoria nodorum
They were then seeded on a moist substrate for germination. As a control untreated seeds were likewise seeded. At about 6° C. the seed was incubated in an air-conditioned chamber until after 4 weeks the proportion of diseased seeds could be determined and the activity of the fungicidal compounds was calculated on the basis of the following formula: [formula]
The active agents were applied in the form of 20% concentration pulverulent compositions.

[5] = test system: Helminthosporium gramineum; assay: Seed treatment in open field tests for infestation by Helminthosporium gramineum (barley); assay type: in vivo
Method: Seed treatment in open field tests for infestation by Helminthosporium gramineum
The active agents were used in the form of pulverulent compositions. After about 8 months in case of winter barley and after about 3 months in case of summer barley the infested plants were counted and the activity was calculated by the formula [formula]

Piricularia oryzae = assay type: in vivo; details: concentration of active agent 0.1 (percentages); 5 days
[6] = test system: root gall nematodes (Meloidogyne sp.); assay: Threshold concentration test with root gall nematodes (cucumber, infested soil); assay type: in vivo; details: 28 days at 24-27° C.
From the text: Threshold concentration test with root gall nematodes (Meloidogyne sp.)
20% concentration pulverulent active agents as listed in the table below were mixed in a uniform manner with a soil which had been heavily infested by root gall nematodes. After waiting for 3 days the treated soil was placed in two clay dishes of a capacity of 0.5 liter. 10 grain of cucumber seeds of the type "Guntruud" were placed into each dish.
Thereafter, the contents of the dishes were permitted to develop at a temperature of 24° to 27° C. for a time of 28 days in a hothouse. The cucumber roots were then washed out and were examined in a water bath regarding nematode infestation. The reduction of the infestation by the active agents as compared with untreated control material was determined in percentages.
The nematocidal activity was calculated by the formula
A=the infestation in the untreated control material and
B=the infestation after treatment.

[7] = summer barley, 50 g active agent/100 kg barley, about 3 months
[8] = summer barley, 100 g active agent/100 kg barley, about 3 months
[9] = winter barley, 50 g active agent/100 kg barley, about 8 months
[10] = winter barley, 100 g active agent/100 kg barley, about 8 months

SMILES: CC[S+]([O-])c1nnc(C(N)=O)s1 (centres unmarked) [5-ethylsulfinyl-1,3,4-thiadiazole-2-carboxamide]
- % activity (Fusarium nivale): 93%
- root evaluation (1-4) (Pythium ultimum; 20 mg/l soil): 2
- number of sound peas (Pythium ultimum; 20 mg/l soil): 15
- root evaluation (1-4) (Pythium ultimum; 40 mg/l soil): 4
- number of sound peas (Pythium ultimum; 40 mg/l soil): 20
- root evaluation (1-4) (Pythium ultimum; 80 mg/l soil): 4
- number of sound peas (Pythium ultimum; 80 mg/l soil): 20
- % activity (Tilletia caries [1]; 25 g active agent/100 kg): 100%
- % activity (Tilletia caries [1]; 50 g active agent/100 kg): 100%
- % activity (Tilletia caries [2]; 5 g active agent per 100 kg): 78%
- % activity (Tilletia caries [2]; 10 g active agent per 100 kg): 96%
- % activity (Tilletia caries [2]; 20 g active agent per 100 kg): 100%
- % activity (Helminthosporium gram; 10 g active agent per 100 kg): 99%
- % activity (Helminthosporium gram; 20 g active agent per 100 kg): 100%
- % activity (Helminthosporium gram; 50 g active agent per 100 kg): 100%

SMILES: CCS(=O)(=O)c1nnc(C#N)s1 [5-ethylsulfonyl-1,3,4-thiadiazole-2-carbonitrile]
- % activity (Fusarium nivale): 92%
- root evaluation (1-4) (Pythium ultimum; 20 mg/l soil): 2
- number of sound peas (Pythium ultimum; 20 mg/l soil): 19
- root evaluation (1-4) (Pythium ultimum; 40 mg/l soil): 4
- number of sound peas (Pythium ultimum; 40 mg/l soil): 20
- root evaluation (1-4) (Pythium ultimum; 80 mg/l soil): 4
- number of sound peas (Pythium ultimum; 80 mg/l soil): 20
- fungus development on the surface of the nutrient solution (0-5) (Fusarium avenaceum [3]; 0.002%): 0
- fungus development on the surface of the nutrient solution (0-5) (Fusarium avenaceum [3]; 0.004%): 0
- number of sound peas (Fusarium avenaceum [4]; 25 mg/l soil): 18
- root evaluation (1-4) (Fusarium avenaceum [4]; 25 mg/l soil): 4
- number of sound peas (Fusarium avenaceum [4]; 50 mg/l soil): 20
- root evaluation (1-4) (Fusarium avenaceum [4]; 50 mg/l soil): 4
- number of sound peas (Fusarium avenaceum [4]; 100 mg/l soil): 20
- root evaluation (1-4) (Fusarium avenaceum [4]; 100 mg/l soil): 4
- fungus development on the surface of the nutrient solution (0-5) (Botrytis cinerea; 0.002%): 1
- fungus development on the surface of the nutrient solution (0-5) (Botrytis cinerea; 0.004%): 0
- fungus development on the surface of the nutrient solution (0-5) (Alternaria solani; 0.002%): 0
- fungus development on the surface of the nutrient solution (0-5) (Alternaria solani; 0.004%): 0
- fungus development on the surface of the nutrient solution (0-5) (Penicillium digitatum; 0.002%): 0
- fungus development on the surface of the nutrient solution (0-5) (Penicillium digitatum; 0.004%): 0

SMILES: CCS(=O)(=O)c1nnc(C(N)=O)s1 [5-ethylsulfonyl-1,3,4-thiadiazole-2-carboxamide]
- % activity (Fusarium nivale): 99.2%
- root evaluation (1-4) (Pythium ultimum; 20 mg/l soil): 2
- number of sound peas (Pythium ultimum; 20 mg/l soil): 18
- root evaluation (1-4) (Pythium ultimum; 40 mg/l soil): 4
- number of sound peas (Pythium ultimum; 40 mg/l soil): 18
- root evaluation (1-4) (Pythium ultimum; 80 mg/l soil): 4
- number of sound peas (Pythium ultimum; 80 mg/l soil): 20
- % activity (Tilletia caries [2]; 5 g active agent per 100 kg): 87%
- % activity (Tilletia caries [2]; 10 g active agent per 100 kg): 93%
- % activity (Tilletia caries [2]; 20 g active agent per 100 kg): 100%
- % activity (Helminthosporium gram; 10 g active agent per 100 kg): 97%
- % activity (Helminthosporium gram; 20 g active agent per 100 kg): 100%
- % activity (Helminthosporium gram; 50 g active agent per 100 kg): 100%

SMILES: C=CCNC(=O)c1nnc(S(=O)(=O)CC)s1 [5-ethylsulfonyl-1,3,4-thiadiazole-2-carboxylic acid-allylamide]
- % activity (Fusarium nivale): 94%
- root evaluation (1-4) (Pythium ultimum; 20 mg/l soil): 1
- number of sound peas (Pythium ultimum; 20 mg/l soil): 11
- root evaluation (1-4) (Pythium ultimum; 40 mg/l soil): 4
- number of sound peas (Pythium ultimum; 40 mg/l soil): 17
- root evaluation (1-4) (Pythium ultimum; 80 mg/l soil): 4
- number of sound peas (Pythium ultimum; 80 mg/l soil): 16
- % activity (Plasmopara viticola; concentration of active agent 0.001 (unit not given)): 98%
- % activity (Plasmopara viticola; concentration of active agent 0.005 (unit not given)): 96%
- % activity (Plasmopara viticola; concentration of active agent 0.025 (unit not given)): 99.4%
- % activity (Septoria nodorum): 72%
- % activity (Tilletia caries [2]; 10 g active agent per 100 kg): 100%
- % activity (Tilletia caries [2]; 20 g active agent per 100 kg): 100%
- % activity (Tilletia caries [2]; 50 g active agent per 100 kg): 100%
- % activity ([5]; summer barley, 25 g active agent/100 kg barley, about 3 months): 97%
- % activity [5, 7]: 100%
- % activity [5, 8]: 100%
- % activity (Helminthosporium gram; 10 g active agent per 100 kg): 100%
- % activity (Helminthosporium gram; 20 g active agent per 100 kg): 100%
- % activity (Helminthosporium gram; 50 g active agent per 100 kg): 100%

SMILES: CCS(=O)(=O)c1nnc(C(=O)N(C)C)s1 [5-ethylsulfonyl-1,3,4-thiadiazole-2-carboxylic acid-dimethylamide]
- % activity (Fusarium nivale): 100%
- root evaluation (1-4) (Pythium ultimum; 20 mg/l soil): 4
- number of sound peas (Pythium ultimum; 20 mg/l soil): 13
- root evaluation (1-4) (Pythium ultimum; 40 mg/l soil): 4
- number of sound peas (Pythium ultimum; 40 mg/l soil): 13
- root evaluation (1-4) (Pythium ultimum; 80 mg/l soil): 4
- number of sound peas (Pythium ultimum; 80 mg/l soil): 15
- % activity (Septoria nodorum): 86%
- % activity (Tilletia caries [2]; 10 g active agent per 100 kg): 100%
- % activity (Tilletia caries [2]; 20 g active agent per 100 kg): 100%
- % activity (Tilletia caries [2]; 50 g active agent per 100 kg): 100%
- % activity (Piricularia oryzae): 90%
- % activity [5, 7]: 99.5%
- % activity [5, 8]: 100%
- % activity [5, 9]: 99.5%
- % activity [5, 10]: 100%
- % activity (Helminthosporium gram; 20 g active agent per 100 kg): 94%
- % activity (Helminthosporium gram; 50 g active agent per 100 kg): 100%

SMILES: CCS(=O)(=O)c1nnc(C(=O)NC)s1 [5-ethylsulfonyl-1,3,4-thiadiazole-2-carboxylic acid-methylamide]
- % activity (Fusarium nivale): 100%
- root evaluation (1-4) (Pythium ultimum; 20 mg/l soil): 4
- number of sound peas (Pythium ultimum; 20 mg/l soil): 17
- root evaluation (1-4) (Pythium ultimum; 40 mg/l soil): 4
- number of sound peas (Pythium ultimum; 40 mg/l soil): 15
- root evaluation (1-4) (Pythium ultimum; 80 mg/l soil): 4
- number of sound peas (Pythium ultimum; 80 mg/l soil): 19
- % activity (Septoria nodorum): 72%
- % activity (Tilletia caries [2]; 10 g active agent per 100 kg): 100%
- % activity (Tilletia caries [2]; 20 g active agent per 100 kg): 100%
- % activity (Tilletia caries [2]; 50 g active agent per 100 kg): 100%
- % activity [5, 7]: 100%
- % activity [5, 8]: 100%
- % activity [5, 9]: 100%
- % activity [5, 10]: 100%
- % activity (Helminthosporium gram; 20 g active agent per 100 kg): 91%
- % activity (Helminthosporium gram; 50 g active agent per 100 kg): 97%

SMILES: CSc1nnc(C#N)s1 [5-methylthio-1,3,4-thiadiazole-2-carbonitrile]
- Percentage reduction of infestation ([6]; 50 mg per liter soil): 95%
- Percentage reduction of infestation ([6]; 100 mg per liter soil): 99%
- Percentage reduction of infestation ([6]; 200 mg per liter soil): 100%
